Data reported in PMC8844856, “Structural basis of cyclic oligoadenylate binding to the transcription factor Csa3 outlines cross talk between type III and type I CRISPR systems” (The Journal of Biological Chemistry, 2022).
“Also recorded” adds a separate entry of the source.

Legend:
[1] = tested on: Csa3bSis binding to the Pcsa1 promoter; parameters: method as in PMID 32983033; details: in the presence of the cA4 analog in vitro; cited from earlier work
His6-Csa3Sso (WT) [2] = molecular target: T1, His6-Csa3Sso (WT) (Saccharolobus solfataricus, UniProt Q97Y88); assay: Microscale thermophoresis (MST) binding of cOA ligands to wildtype Csa3Sso
T1 construct: made in house; host or cells: E. coli BL21(DE3)-pLysS
T1 sequence (Q97Y88 1-237): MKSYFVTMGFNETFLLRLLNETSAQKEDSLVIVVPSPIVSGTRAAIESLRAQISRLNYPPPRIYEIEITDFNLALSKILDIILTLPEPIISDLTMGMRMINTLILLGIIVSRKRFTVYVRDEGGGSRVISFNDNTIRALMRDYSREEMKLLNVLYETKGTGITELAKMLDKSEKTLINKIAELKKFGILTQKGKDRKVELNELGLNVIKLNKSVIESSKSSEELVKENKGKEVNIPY
Protocol: (§1) The ligand-binding specificity of Csa3Sso (WT) and the role of Csa3Sso residues in ligand binding were determined by microscale Thermophoresis (MST). Wildtype or mutant His6-Csa3Sso (200 nM) was fluorescently labeled in 2× binding buffer (10 mM Na/K phosphate, pH 5.8, 10 mM MgCl2, 25 mM NaCl, and 0.05% Tween 20) using 100 nM RED-Tris NTA His-Tag labeling dye (Nanotemper Technologies, Inc) and incubated in the dark at room temperature for 30 min. Two millimolar stocks of synthetic ligands including cA3, cA4, and cA6 (Biolog Life Science Institute) or linear ribonucleotide 5′-rCrArArArA-3′ (Bio-Synthesis Inc) were serially diluted in a 1:1 ratio with nuclease-free water. The labeled proteins were then mixed with ligands in a 1:1 ratio. Only cA4 was used in the MST experiments with the Csa3Sso mutants (2 mM stocks of cA4 were used for F10A, F14A, G96A, and R98A mutants, and 20 μM stocks were used for E122A and E122Q mutants). The mixtures of proteins and ligands were incubated in the dark at room temperature for 30 min. The precipitated material was removed by centrifugation at 6000 rpm for 5 min. The supernatants were then loaded into Monolith NT.115 Series Premium capillaries in triplicate, and the thermophoresis was detected with 40% excitation power and 40% IR-laser power for an on-time of 20 s at 25 °C.
(§2) The binding affinities of oligonucleotides and PCas4a to Csa3Sso (WT and mutants) were analyzed according to the law of mass action in a standard fitting mode of MO.Affinity analysis software (version 2.3).

Csa3bSis = molecular target: Csa3bSis; parameters: method as in PMID 32983033; details: surface plasmon resonance; cited from earlier work
Csa3Sso R98A mutant = molecular target: T2, Csa3Sso R98A mutant (Saccharolobus solfataricus, UniProt Q97Y88, R98A); assay: MST binding of cA4 to Csa3Sso R98A mutant; details: Fig. 4E
T2 construct: made in house; host or cells: E. coli BL21(DE3)-pLysS (pBB75)
Protocol: as §1, with “The mixtures of proteins and ligands were incubated in the dark at room temperature for 30 min. The precipitated material was removed by centrifugation at 6000 rpm for 5 min.” left out
as §2

Csa3Sso = molecular target: T3, Csa3Sso (Saccharolobus solfataricus, UniProt Q97Y88); assay: Ring nuclease activity assay (C18 HPLC), wildtype Csa3Sso; assay type: biochemical; details: 3 h
T3 construct: made in house; host or cells: E. coli BL21(DE3)-pLysS
T3 sequence (Q97Y88 1-237): T1 sequence (Q97Y88 1-237)
Protocol: (§3) […]. The reaction mixtures were deproteinized by ultrafiltration with an Amicon Ultra 3 kDa cutoff centrifugal filter (Millipore). […]. For both conditions, the products and controls were collected and analyzed with High Performance Liquid Chromatography system (UltiMate 3000, Thermo Scientific) equipped with the C18 column (4.6 × 100 mm, […], Thermo Scientific) and C18 column, (15 cm × 4.6 mm, […], Supelco), for the first and second conditions, respectively.

Csa3Sso G96A mutant = molecular target: T4, Csa3Sso G96A mutant (Saccharolobus solfataricus, UniProt Q97Y88, G96A); assay: MST binding of cA4 to Csa3Sso G96A mutant; details: Fig. 4E
T4 construct: made in house; host or cells: E. coli BL21(DE3)-pLysS (pET21b)
Protocol: as §1, with “The mixtures of proteins and ligands were incubated in the dark at room temperature for 30 min. The precipitated material was removed by centrifugation at 6000 rpm for 5 min.” left out
as §2

[3] = molecular target: T5, Csa3Sso–PCas4a complex precipitates (Saccharolobus solfataricus, UniProt Q97Y88); assay: Visual precipitation of Csa3Sso–PCas4a complexes in tubes, wildtype; details: 50 μM Csa3Sso WT, 10 μM PCas4a, 500 μM cA4, 30 min, 20 °C
T5 construct: made in house; host or cells: E. coli BL21(DE3)-pLysS
T5 sequence (Q97Y88 1-237): T1 sequence (Q97Y88 1-237)
From the text: (§4) […]. The DNA fragment docked onto protomer A in the cA4-bound Csa3Sso dimer sterically clashed with a region in the CARF domain from protomer B in this dimer (encircled by a red dotted circle). […] To obtain these models, wHTH domains of B. subtilis OhrR (PDB code: 1Z9C ([71]), RMSD: 1.7 Å) were individually superimposed onto wHTH domains of the Csa3Sso dimer and OhrR was omitted from the view for clarity. A single and straight model of B-form DNA with two copies of the palindromes could not be modeled with the apo Csa3Sso dimer owing to a slight misorientation (not shown) between Csa3Sso wHTH domains (possibly requiring a bend in the DNA). B, precipitation of Csa3Sso in the presence of PCas4a DNA and its solubilization by cA4 binding to the Csa3Sso CARF domain. […]. Cy5-labeled PCas4a, 50 nM, was added to different Csa3Sso concentrations ranging from 500 nM to 25 μM in the presence or absence of cA4 added in a 50:1 ratio of cA4:Csa3Sso. […].

[4] = molecular target: T6, Csa3Sso-R98A mutant with PCas4a DNA (Saccharolobus solfataricus, UniProt Q97Y88, R98A); assay: Visual precipitation of Csa3Sso-R98A with PCas4a DNA in tubes; details: 50 μM Csa3Sso R98A, 10 μM PCas4a, 500 μM cA4, 30 min, 20 °C
T6 construct: made in house; host or cells: E. coli BL21(DE3)-pLysS (pBB75)
From the text: as §4

His6-Csa3Sso (WT) [5] = molecular target: T1, His6-Csa3Sso (WT); assay: MST binding of PCas4a promoter DNA to Csa3Sso with or without cOAs; details: 50-fold excess of cOA (25 μM)
Protocol: The MST experiment and data analysis for ligand-induced changes in Csa3Sso binding affinity with PCas4a was performed as mentioned above except for the following: 1 μM of His6-Csa3Sso (WT) was fluorescently labeled in 2× binding buffer with 40 nM RED-Tris NTA His-Tag labeling dye in the absence or presence of cA4 or cA6. The labeling mixtures were incubated in the dark at room temperature for 30 min. A 50 μM stock of PCas4a was serially diluted in 1:1 ratios with nuclease-free water. The labeled proteins ± ligands were then mixed with diluted PCas4a in a 1:1 ratio and incubated in the dark at room temperature for 30 min. The supernatants obtained after removal of precipitated material were then loaded into Monolith NT.115 Series Premium capillaries in triplicate, and the thermophoresis was detected with 100% excitation power and 60% IR-laser power for an on-time of 20 s at 25 °C.
as §2

Csa3Sso-E122A = molecular target: T7, Csa3Sso-E122A (Saccharolobus solfataricus, UniProt Q97Y88, E122A); assay: Ring nuclease activity assay (C18 HPLC), Csa3Sso-E122A; assay type: biochemical; details: 5 μM E122A mutant, 500 μM cA4, 60 °C, 3 h, Fig. S5C
T7 construct: made in house; host or cells: E. coli BL21(DE3)-pLysS (pET21b)
Protocol: as §3

[6] = molecular target: Treponema succinifaciens Card1; parameters: method as in PMID 33461211; details: cited from earlier work
Csa3Sso–PCas4a complex = Csa3Sso–PCas4a complex (Saccharolobus solfataricus, UniProt Q97Y88)
Protocol: Top and bottom DNA oligonucleotide strands used for EMSA were purchased from Sigma-Aldrich (Table S2). The oligonucleotide strands were annealed by mixing them in 1:1 molar ratio followed by heating at 98 °C for the unlabeled, or 70 °C for the Cy5-labeled, DNA fragments for 15 min. Slow cooling to room temperature was used to anneal the fragments. Unlabeled probe-containing samples used for Fig. S8C were electrophoresed using a 2% (w/v) agarose Tris-Borate-EDTA (TBE) gel at 100 V for 30 min at room temperature. Probes were stained with ethidium bromide and visualized using Gel Doc XR+ Molecular Imager (Bio-Rad). […] The Cy5-labeled probes were electrophoresed in a 5% acrylamide TBE gel at 100 V for 1 h at 4 °C. DNA bands were visualized using FluorChem R gel imager (Protein Simple, Inc).

Csa3Sso-E122Q = molecular target: T8, Csa3Sso-E122Q (Saccharolobus solfataricus, UniProt Q97Y88, E122Q); assay: Ring nuclease activity assay (C18 HPLC), Csa3Sso-E122Q; assay type: biochemical; details: 5 μM E122Q mutant, 500 μM cA4, 60 °C, 3 h, Fig. S5C
T8 construct: made in house; host or cells: E. coli BL21(DE3)-pLysS (pET21b)
Protocol: as §3

Csa3Sso F10A mutant = molecular target: T9, Csa3Sso F10A mutant (Saccharolobus solfataricus, UniProt Q97Y88, F10A); assay: MST binding of cA4 to Csa3Sso F10A mutant; details: Fig. 4E
T9 construct: made in house; host or cells: E. coli BL21(DE3)-pLysS (pET21b)
Protocol: as §1, with “The mixtures of proteins and ligands were incubated in the dark at room temperature for 30 min. The precipitated material was removed by centrifugation at 6000 rpm for 5 min.” left out
as §2

Csa3Sso F14A mutant = molecular target: T10, Csa3Sso F14A mutant (Saccharolobus solfataricus, UniProt Q97Y88, F14A); assay: MST binding of cA4 to Csa3Sso F14A mutant; details: Fig. 4E
T10 construct: made in house; host or cells: E. coli BL21(DE3)-pLysS (pET21b)
Protocol: as §1, with “The mixtures of proteins and ligands were incubated in the dark at room temperature for 30 min. The precipitated material was removed by centrifugation at 6000 rpm for 5 min.” left out
as §2

T7 sequence (Q97Y88 whole entry E122A): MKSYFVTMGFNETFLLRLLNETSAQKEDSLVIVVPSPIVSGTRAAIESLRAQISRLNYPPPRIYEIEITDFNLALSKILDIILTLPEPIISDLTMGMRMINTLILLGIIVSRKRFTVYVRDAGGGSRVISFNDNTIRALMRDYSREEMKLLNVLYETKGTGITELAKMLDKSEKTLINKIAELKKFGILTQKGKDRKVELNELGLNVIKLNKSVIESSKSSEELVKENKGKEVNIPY
T8 sequence (Q97Y88 whole entry E122Q): as the sequence (Q97Y88 whole entry E122A) above, with A122Q counted along it
T10 sequence (Q97Y88 whole entry F14A): as the sequence (Q97Y88 whole entry E122A) above, with F14A, A122E counted along it
T9 sequence (Q97Y88 whole entry F10A): as the sequence (Q97Y88 whole entry E122A) above, with F10A, A122E counted along it
T4 sequence (Q97Y88 whole entry G96A): as the sequence (Q97Y88 whole entry E122A) above, with G96A, A122E counted along it
T2 sequence (Q97Y88 whole entry R98A): as the sequence (Q97Y88 whole entry E122A) above, with R98A, A122E counted along it
T6 sequence (Q97Y88 whole entry R98A): as the sequence (Q97Y88 whole entry E122A) above, with R98A, A122E counted along it

Row | Compound | fold increase in Csa3bSis binding affinity to the Pcsa1 promoter [1] [fold] | specific binding to His6-Csa3Sso (His6-Csa3Sso (WT) [2]; MST) | Kd (Csa3bSis) [µM] | fold stronger binding of His6-Csa3Sso to cA4 than Csa3bSis to the linear cA4 analog (His6-Csa3Sso (WT) [2]; MST KD vs SPR KD of ref 57) [fold] | cA4 binding (Csa3Sso R98A mutant) | cA4 hydrolysis (ring nuclease activity) (Csa3Sso; 5 μM Csa3Sso, 500 μM cA4, buffer G, 60 °C, Fig. 6) | cA4 hydrolysis (ring nuclease activity) (Csa3Sso; 50 µM Csa3Sso, 250 µM cA4, buffer G or binding buffer, 55 °C, Fig. S5 A, B) | cA4 binding (Csa3Sso G96A mutant) | effect on formation of Csa3Sso–PCas4a complex precipitates [3] | rescue of Csa3Sso-R98A from precipitating with DNA [4] | effect of excess cOA on PCas4a binding affinity of Csa3Sso (His6-Csa3Sso (WT) [5]) | cA4 hydrolysis (ring nuclease activity) (Csa3Sso-E122A) | Kd [6] [µM] | effect on levels of soluble Csa3Sso–DNA complex (shifted band) (Csa3Sso–PCas4a complex) | cA4 hydrolysis (ring nuclease activity) (Csa3Sso-E122Q) | cA4 binding (Csa3Sso F10A mutant) | cA4 binding (Csa3Sso F14A mutant)
1 | 5′-rCrArArArA-3′ [5′CAAAA3′] | ~10 | only cA4 exhibited a specific low micromolar binding | 46.1 ± 8.14 | – | – | – | – | – | – | – | – | – | – | – | – | – | –
2 | Nc1ncnc2c1ncn2[C@@H]1O[C@@H]2COP(=O)(O)O[C@H]3[C@@H](O)[C@H](n4cnc5c(N)ncnc54)O[C@@H]3COP(=O)(O)O[C@H]3[C@@H](O)[C@H](n4cnc5c(N)ncnc54)O[C@@H]3COP(=O)(O)O[C@H]3[C@@H](O)[C@H](n4cnc5c(N)ncnc54)O[C@@H]3COP(=O)(O)O[C@H]2[C@H]1O [cA4, cyclic tetra-adenylate] | – | – | – | 8 | completely lost cA4 binding | no sign of cA4 hydrolysis products; also recorded: No changes in the time-dependent stability of cA4 | No changes | completely lost the ability to bind cA4 | prevented their formation | could not rescue | no significant effect; also recorded: did not significantly change | did not exhibit any gain of ring nuclease activity; also recorded: no ring nuclease activity was observed | 0.015 | no effect | did not exhibit any gain of ring nuclease activity; also recorded: no ring nuclease activity was observed | complete loss of cA4 binding | complete loss of cA4 binding
